From US20220071952A1, “METHODS OF TREATING AND PREVENTING HEPATOTOXICITY” (Natreon, Inc., priority 2020, published 2022)

Columns and labels:
[1] = system: alcohol-induced hepatotoxicity in mice; assay: Synergistic hepatoprotective activity of DBPs against alcohol-induced hepatotoxicity (Example IV); details: for ACP / ALP / ALT / AST / Total Protein: alcohol 5 g/kg, Ursocol 250 mg/kg b.w., mean ± SEM, n=4
Procedure: Hepatotoxicity was induced by oral administration of alcohol (ethanol: 5 g/kg) from stock 400 mg/ml twice daily for 15 days.
3-OH-DBP and 3,8-(OH)2-DBP were each separately suspended in 0.3% CMC and administered at a dose of 10 mg/kg body weight per orally for 15 days. During the 15 days treatment, body weight, food intake, and water intake were monitored at regular intervals. Following 15 days of treatment physical parameters (relative organ weight) and biochemical parameters (plasma total protein content, ALT, AST, ALP, and ACP) were studied.
3-OH-DBP (2 mg/kg body weight, 10 mg/kg body weight);
3,8-(OH)2-DBP (10 mg/kg body weight, 50 mg/kg body weight); and

[2] = system: CCl4-induced hepatotoxicity in mice; assay: Synergistic hepatoprotective activity of DBPs against CCl4-induced hepatotoxicity (Example IV); details: CCl4 1 ml/kg, Ursocol 250 mg/kg b.w., mean ± SEM, n=4

C[C@H](CCC(=O)O)[C@H]1CC[C@H]2[C@@H]3[C@@H](O)C[C@@H]4C[C@H](O)CC[C@]4(C)[C@H]3CC[C@]12C [Ursocol, ursodeoxycholic acid, reference compound]
ACP ([1]; female mice): 2.4 ± 0.47 U/L
ALP ([1]; female mice): 49 ± 6.5 IU/L
ALT ([1]; female mice): 26.63 ± 2.85 IU/L
AST ([1]; female mice): 25.39 ± 4.08 IU/L
Total Protein ([1]; female mice): 5.97 ± 0.53 g/dL
ACP ([1]; male mice): 3.19 ± 0.36 U/L
ALP ([1]; male mice): 86.1 ± 3.73 IU/L
ALT ([1]; male mice): 26.6 ± 1.94 ^ IU/L
AST ([1]; male mice): 24.3 ± 3.84 IU/L
Total Protein ([1]; male mice): 8.83 ± 0.16 g/dL
Relative liver weight ([1]; male mice, alcohol study of Example IV): significantly increased
ACP ([2]; female mice): 29 ± 3.3 U/L
ALP ([2]; female mice): 45 ± 6.9 IU/L
ALT ([2]; female mice): 50 ± 5.6 IU/L
AST ([2]; female mice): 49 ± 6.8 IU/L
Total Protein ([2]; female mice): 6 ± 0.22 g/dL
ACP ([2]; male mice): 22 ± 4.4 ^ U/L
ALP ([2]; male mice): 60 ± 9.9 ^ IU/L
ALT ([2]; male mice): 21 ± 2.6 ^ IU/L
AST ([2]; male mice): 18 ± 3.4 ^ IU/L
Total Protein ([2]; male mice): 6 ± 0.55 g/dL
